Here are results for 47 compounds from the C3SDB collision cross section collection.

The conditions of data set [1]: instrument: DT, stepped-field.
For data set [2] the following is noted: instrument: TW, calibrated with polyalanine.
The conditions of data set [3]: instrument: DT, single field, calibrated with Agilent tune mix (Agilent).
For data set [4] the following is noted: [M-H]-; instrument: TW; calibrated with phosphatidylcholines (ESI+) and phosphatidylethanolamines (ESI-).
For data set [5] the following is noted: [M-H]-; instrument: DT; stepped-field.
The conditions of data set [6]: instrument: TW, calibrated with phosphatidylcholines (ESI+) and phosphatidylethanolamines (ESI-).
The conditions of data set [7]: instrument: DT, single field, calibrated with Agilent tune mix (Agilent). The source holds these as a separate data set.
The conditions of data set [8]: instrument: DT, stepped-field. This is another data set of the same source.

Several values for one entry are separate records, joined by “and”; a condition that tells them apart may be missing. Identical values can stand only once.

For `NC(CCS)C(=O)O` (racemic) [DL-Homocysteine], the “collision cross section (N2)” value in data set [1] ([M+H]+) worked out at 130.78 Å².

For `Nc1ncnc2c1ncn2[C@@H]1O[C@H](COP(=O)(O)O)[C@@H](O)[C@H]1O` [AMP], the “collision cross section (N2)” value in data set [2] ([M+H]+) is 167 Å².

For the compound `N[C@@H](CC(=O)O)C(=O)O` [Aspartic acid], the “collision cross section (N2)” value in data set [2] ([M+H]+) came to 122 Å².

Take `C[N+](C)(C)C[C@H](O)CC(=O)[O-]` [Carnitine]: the “collision cross section (N2)” value in data set [2] ([M+H]+) is reported as 130 Å².

Regarding `CCC(C)[C@H](NC(=O)[C@H](CC(C)C)NC(=O)[C@H](CC(=O)O)NC(=O)[C@@H](N)CCC(=O)O)C(=O)N[C@@H](C)C(=O)N[C@@H](Cc1ccc(O)cc1)C(=O)N[C@@H](CC(C)C)C(=O)N[C@@H](CCCCN)C(=O)O` (some centres undefined) [EDLIAYLK], the “collision cross section (N2)” value in data set [1] ([M+2H]2+) was found to be 340.98 Å²; in data set [1] ([M+H]+) it was 307.47 Å².

On to `CNC[C@H](O)c1ccc(O)c(O)c1` [Epinephrine], for which the “collision cross section (N2)” value in data set [2] ([M+H]+) is recorded as 133 Å²; in data set [3] ([M+H-H2O]+), 138.3 Å²; in data set [3] ([M-H]-) it was 137.87 Å².

For `N[C@H]1[C@@H](OP(=O)(O)O)O[C@H](CO)[C@@H](O)[C@@H]1O` [Glucosamine 1-phosphate], the “collision cross section (N2)” value in data set [2] ([M+H]+) was 153 Å²; in data set [3] ([M+Na]+), 158.5 Å².

With `N[C@H]1C(O)O[C@H](CO)[C@@H](O)[C@@H]1O` (some centres undefined) [Glucosamine], the results for the “collision cross section (N2)” value in data set [2] ([M+H]+) and in data set [3] ([M+H-H2O]+) were 135 Å² and 132.9 Å², respectively.

For `O=P(O)(O)OC[C@H](O)CO` [Glycerol monophosphate], in data set [2] ([M+Na]+), the “collision cross section (N2)” value is 132 Å².

With `CCC(C)[C@H](N)C(=O)N[C@@H](Cc1ccccc1)C(=O)N[C@H](C(=O)N[C@@H](CCC(N)=O)C(=O)N[C@@H](CCCCN)C(=O)O)C(C)C` (some centres undefined) [IFVQK], the “collision cross section (N2)” value turned out to be 285.5 Å² in data set [1] ([M+2H]2+) and 248.88 Å² in data set [1] ([M+H]+).

With `N[C@@H](CC(=O)O)C(=O)O` [L-Aspartic acid], the “collision cross section (N2)” value in data set [1] ([M-H]-) came to 120.39 Å².

In the case of `CCCCCCCCCCCC(=O)O` [Lauric acid], in data set [1] ([M-H]-), the “collision cross section (N2)” value was determined as 154.82 Å².

On to `NCCCC[C@H](N)C(=O)O` [Lysine], for which the “collision cross section (N2)” value in data set [2] ([M+H]+) is recorded as 127 Å².

`CCC(C)[C@H](NC(=O)CNC(=O)[C@H](C)NC(=O)[C@H](Cc1ccccc1)NC(=O)[C@@H](NC(=O)[C@@H](N)CCSC)C(C)CC)C(=O)N[C@@H](CCCCN)C(=O)O` (some centres undefined) [MIFAGIK]: the “collision cross section (N2)” value in data set [1] ([M+2H]2+) amounted to 305.66 Å²; in data set [1] ([M+H]+), 275.34 Å².

As to `CSC[C@H]1O[C@@H](n2cnc3c(N)ncnc32)[C@H](O)[C@@H]1O` [Methylthioadenosine], the “collision cross section (N2)” value in data set [2] ([M+H]+) is given as 167 Å².

Take `NCCC[C@H](N)C(=O)O` [Ornithine]: the “collision cross section (N2)” value in data set [2] ([M+H]+) is listed as 121 Å².

Consider `CCCCCCCCCCCCCCCCCCC(=O)OC[C@H](COP(=O)(O)O)OC(=O)CCCCCCCCCCCC` [PA(32:0)], for which, in data set [4], the “collision cross section (N2)” value came to 251.1 Å².

Turning to `CCCCCCCCCCCCCCCCCCC(=O)O[C@H](COC(=O)CCCCCCCCCCCCCCCC)COP(=O)(O)O` [PA(36:0)], the “collision cross section (N2)” value in data set [4] is 264.1 Å².

Turning to `Nc1ccc(C(=O)O)cc1` [PABA], the “collision cross section (N2)” value in data set [2] ([M+H]+) was 131 Å².

Consider `CCCCCCCCCCCCCCCC(=O)O[C@H](COC(=O)CCCCCCCCCCCC)COP(=O)(O)OC[C@@H](O)CO` [PG(29:0)], for which, in data set [4], the “collision cross section (N2)” value is given as 255.2 Å².

For the compound `CCCCCCCCCCCCCCCCCC(=O)OC[C@H](COP(=O)(O)OC[C@@H](O)CO)OC(=O)CCCCCCCCCCC` [PG(30:0)], the “collision cross section (N2)” value turned out to be 258.7 Å² in data set [4] and 265.6 Å² in data set [5].

Consider `CCCC/C=C\CCCCCCCC(=O)OC[C@H](COP(=O)(O)OC[C@@H](O)CO)OC(=O)CCCCCCC/C=C\CCCCCC` [PG(30:2)], for which the “collision cross section (N2)” value in data set [4] is given as 255 Å².

Consider `CCCCCCCCCCCCCCCCCCC(=O)O[C@H](COC(=O)CCCCCCCCCCC)COP(=O)(O)OC[C@@H](O)CO` [PG(31:0)], for which the “collision cross section (N2)” value in data set [4] came out at 262 Å².

For `CCCCC/C=C\C/C=C\CCCCCCCC(=O)O[C@H](COC(=O)CCCCCCCCCCCC)COP(=O)(O)OC[C@@H](O)CO` [PG(31:2)], the “collision cross section (N2)” value in data set [4] is given as 257.9 Å².

For `CCCC/C=C\CCCCCCCC(=O)OC[C@H](COP(=O)(O)OC[C@@H](O)CO)OC(=O)CCCCCCC/C=C\CCCCCCCC` [PG(32:2)], the “collision cross section (N2)” value in data set [4] stood at 261.4 Å²; in data set [6] ([M+Na]+) it was 269.8 Å²; in data set [6] ([M-H]-), 261 Å².

For `CCCCCCCC/C=C\CCCCCCCCCC(=O)O[C@H](COC(=O)CCCCCCCCCCCC)COP(=O)(O)OC[C@@H](O)CO` [PG(33:1)], the “collision cross section (N2)” value stood at 267 Å² in data set [4], 266.4 Å² in data set [7] ([M-H]-) and 273.7 Å² in data set [5].

Take `CCCCCCCCCCCCCCCCCCCCC(=O)O[C@H](COC(=O)CCCCCCCCCCCCC)COP(=O)(O)OC[C@@H](O)CO` [PG(35:0)]: in data set [4], the “collision cross section (N2)” value was found to be 275 Å².

With `CCCC/C=C\CCCCCCCC(=O)OC[C@H](COP(=O)(O)OC[C@@H](O)CO)OC(=O)CCCCCCCCCCCCCCCCCCCC` [PG(35:1)], the “collision cross section (N2)” value in data set [4] was 273.2 Å²; in data set [7] ([M-H]-) it was 272.7 Å²; in data set [5], 280.1 Å².

Turning to `CCCCCC/C=C\CCCCCCCC(=O)OC[C@H](COP(=O)(O)OC[C@@H](O)CO)OC(=O)CCCCCCCCCCCCCCCCCCC` [PG(36:1)], the “collision cross section (N2)” value in data set [4] is 275.7 Å²; in data set [7] ([M+H]+) it was 292 Å²; in data set [7] ([M+NH4]+) it was 292.5 Å²; in data set [7] ([M+Na]+) it was 287.5 Å²; in data set [5], 282.9 Å² and 284.1 Å²; in data set [6] ([M+Na]+), 287.5 Å². Besides, the “collision cross section (N2)” value in data set [6] ([M-H]-) was 275.7 Å².

Consider `CCCCC/C=C\CCCCCCCC(=O)O[C@H](CO/C=C\CCCCCCCCCCCCCC)COP(=O)(O)OC[C@@H](O)CO` [PG(p31:1)], for which the “collision cross section (N2)” value in data set [4] amounted to 258.5 Å².

Take `CCCCCCC/C=C\CCCCCCCC(=O)O[C@H](CO/C=C\CCCCCCCCCCCCCC)COP(=O)(O)OC[C@@H](O)CO` [PG(p33:1)]: the “collision cross section (N2)” value in data set [4] is 265.1 Å².

Take `CCCCC/C=C\C/C=C\C/C=C\CCCCC(=O)O[C@H](CO/C=C\CCCCCCCCCCCCCC)COP(=O)(O)OC[C@@H](O)CO` [PG(p34:3)]: the “collision cross section (N2)” value in data set [4] came out at 264.8 Å².

Consider `CC(C)(CO)[C@@H](O)C(=O)NCCC(=O)O` [Pantothenic acid], for which, in data set [2] ([M+H]+), the “collision cross section (N2)” value is on record as 145 Å².

Take `Cc1ncc(CO)c(C(=O)O)c1O` [Pyridoxic acid]: the “collision cross section (N2)” value in data set [2] ([M+H]+) is reported as 130 Å².

Turning to `O=C[C@H](O)[C@H](O)[C@H](O)COP(=O)(O)O` [Ribose 5-monophosphate], in data set [2] ([M+Na]+), the “collision cross section (N2)” value turned out to be 146 Å².

Regarding `CN=C(NC)NCCC[C@H](N)C(=O)O` [SDMA], the “collision cross section (N2)” value in data set [2] ([M+H]+) amounted to 142 Å².

For the compound `NCCS(=O)(=O)O` [Taurine], the “collision cross section (N2)” value was 124 Å² in data set [2] ([M+H]+) and 135.4 Å² in data set [3] ([M+H-H2O]+).

For the compound `Cc1c[nH]c(=O)[nH]c1=O` [Thymine], the “collision cross section (N2)” value came to 115 Å² in data set [2] ([M+H]+), 126.14 Å² in data set [8] ([M+H]+), 121.9 Å² in data set [3] ([M+H]+) and 117.39 Å² in data set [3] ([M-H]-).

As to `N[C@@H](Cc1c[nH]c2ccccc12)C(=O)O` [Tryptophan], in data set [2] ([M+H]+), the “collision cross section (N2)” value was 145 Å².

Regarding `O=c1ccn([C@@H]2O[C@H](COP(=O)(O)O)[C@@H](O)[C@H]2O)c(=O)[nH]1` [UMP], the “collision cross section (N2)” value in data set [2] ([M+Na]+) was 168 Å².

With `O=c1[nH]c(=O)c2ncn([C@@H]3O[C@H](CO)[C@@H](O)[C@H]3O)c2[nH]1` [Xanthosine], the “collision cross section (N2)” value is on record as 158 Å² in data set [2] ([M+H]+), 166.49 Å² in data set [8] ([M+H]+), 177.45 Å² in data set [8] ([M+Na]+) and 172.8 Å² in data set [3] ([M+Na]+).

`Nc1ncnc2c1ncn2[C@@H]1O[C@@H]2COP(=O)(O)O[C@H]2[C@H]1O` [cAMP]: the “collision cross section (N2)” value in data set [2] ([M+H]+) turned out to be 172 Å².

Take `N[C@@H](CCC(=O)N[C@@H](CS)C(=O)NCC(=O)O)C(=O)O` [glutathione]: the “collision cross section (N2)” value in data set [2] ([M+H]+) is reported as 165 Å².

Turning to `OC[C@H]1O[C@@H](O[C@H]2[C@H](O)[C@@H](O)[C@H](O)O[C@@H]2CO)[C@H](O)[C@@H](O)[C@H]1O` [lactose], in data set [2] ([M+Na]+), the “collision cross section (N2)” value amounted to 173 Å².

For `OC[C@H]1O[C@H](OC[C@H]2O[C@H](O[C@]3(CO)O[C@H](CO)[C@@H](O)[C@@H]3O)[C@H](O)[C@@H](O)[C@@H]2O)[C@H](O)[C@@H](O)[C@H]1O` [raffinose], the “collision cross section (N2)” value in data set [2] ([M+Na]+) is listed as 210 Å².

For `OC[C@H]1O[C@@](CO)(O[C@H]2O[C@H](CO)[C@@H](O)[C@H](O)[C@H]2O)[C@@H](O)[C@@H]1O` [sucrose], the “collision cross section (N2)” value in data set [2] ([M+Na]+) is recorded as 170 Å².

For `OC[C@H]1O[C@H](O[C@H]2O[C@H](CO)[C@@H](O)[C@H](O)[C@H]2O)[C@H](O)[C@@H](O)[C@@H]1O` [trehalose], the “collision cross section (N2)” value in data set [2] ([M+Na]+) was found to be 173 Å².
